Earlier results, collected in patent publication US20120135949A1, “COMBINATION THERAPY FOR TREATING HCV INFECTION” (BOEHRINGER INGELHEIM INTERNATIONAL GMBH, priority 2010, published 2012).

Test system: HCV
Conditions: compound (1) monotherapy, 14 days, 1a and 1b patients

Question: Which “Virologic rebound during the treatment period” value does the source give for C=C[C@@H]1C[C@]1(NC(=O)[C@@H]1C[C@H](Oc2cc(-c3csc(NC(=O)C(C)C)n3)nc3c(Br)c(OC)ccc23)CN1C(=O)[C@@H](NC(=O)OC1CCCC1)C(C)(C)C)C(=O)O [Compound (1)] here?
Answer: vast majority of both 1a and 1b patients demonstrated virologic rebound
